How the values were obtained:
[1] = tested on: TGF-β/Smad pathway in annulus fibrosus cells; test: Immunoprotein western-blotting of annulus fibrosus cells (activation of the TGF-β/Smad pathway); assay type: cell-based
Procedure: Activation of the TGF-β/Smad pathway in annulus fibrosus cells by bleomycin:
Method for immunoprotein western-blotting of annulus fibrosus cells:
Annulus fibrosus cells (provided by CAS Cell Bank) were cultured in a six-well plate to which high-sugar DMEM medium+10% fetal bovine serum was added, the plate was placed in a 5% CO2 incubator at 37° C., and 5, 10 μg/ml of bleomycin and/or the TGFβR1 inhibitor LY364947 was added when the cell confluence was 70%-80% to co-culture for 30 min or 24 h. Total cellular protein was extracted from cultured annulus fibrosus cells (Medical Center of Rush University) by using RIPA lysis buffer (Roche, Basel, Switzerland) containing phosphatase and protease inhibitors. Equal amounts (20-30 μg) of extracted proteins were obtained by using 10% or 12.5% SDSPAGE gel, and proteins were separated by electroblotting with 0.22 μm PVDF membrane (Merck Millipore). The PVDF membrane was blocked with 5% BSA-PBS for 1 h at room temperature and then incubated with primary antibody (diluted at a ratio of 1:1000 in 5% BSA-PBS) overnight (at least 16 h) at 4° C. Anti-SMAD2 antibody (Ser308, D4364; rabbit monoclonal antibody), anti-phosphorylated SMAD2 antibody (Ser465/467, 138D4; rabbit monoclonal antibody), anti-SMAD3 antibody (C67H9; rabbit monoclonal antibody), anti-phosphorylated SMAD3 antibody (Ser423/425, C25A9; rabbit monoclonal antibody), anti-SMAD2/3 antibody (D7G7; rabbit monoclonal antibody), anti-phospho SMAD2/3 antibody (Ser465/467; Ser423/425; rabbit monoclonal antibody), anti-SMAD4 antibody (D3M6U; rabbit monoclonal antibody), and […] antibody (D6A8; rabbit monoclonal antibody) were purchased from Cell Signaling Technology (Danvers, Massachusetts, USA). […] The membrane was extensively rinsed in TBST again and protein immunobands were detected by using the LI-COR Odyssey Fluorescence Imaging System (LICOR Biosciences, Lincoln, NE, USA). […]

[2] = tested on: punctured intervertebral disc (spinal degeneration); test: Digital X-ray and MRI imaging of punctured rat tail discs after disc local injection of bleomycin; assay type: in vivo, Sprague-Dawley rats; conditions: 5 μl of 10 and 5 μg/ml bleomycin per disc, injected two weeks after puncture, four weeks recovery
Procedure: Six 8-week-old male Sprague-Dawley rats (Shanghai Laboratory, Shanghai Animal Research Center, China) were raised at 26-28° C. and 50-65% humidity for 12 h day and night. […] Before surgery, the rats were anesthetized by intraperitoneal injection of sodium pentobarbital (5 mg/100 g of body weight). The tails of rats were disinfected with iodinated polyvinyl pyrrolidone, and then a longitudinal skin incision was made to the tail near the ventral part to expose 6-10 parts of the intervertebral disc of the tail bone. The Co6/7 disc was used as a sham control, and Co7/8, Co8/9, and Co9/10 were used as experimental groups. A sterile 20-gauge needle was used to perpendicularly puncture the intervertebral disc through the skin, so as to ensure the needle passed through the annulus fibrosus and stuck into the nucleus pulposus located at the center of the intervertebral disc. The incision was then sutured and the rats were allowed to recover for two weeks. The rats (n=6) were re-subjected to surgery to expose Co8/9 and Co9/10 discs, and 5 μl of 10 and 5 μg/ml bleomycin were injected into each disc. The surgical incision was then sutured and the rats were allowed to recover for four weeks. At the end of the experiment, all rats were executed, the tails were collected, the soft tissues were cleared, and the spines were fixed with 4% PFA. Co6/7 was the control group (sham group), Co7/8 was the Puncture group, and Co8/9 and Co9/10 were the puncture+bleomycin administration groups (Bleomycin group).
Digital X-ray imaging of the punctured disc samples (Puncture and Bleomycin groups) prepared in Embodiment 2 was performed in the anterior-posterior axis with a detector that provides up to 5× geometric magnification (Faxitron VersaVision; Faxitron Bioptics LLC, Tucson, AZ. USA). MRI imaging of the same punctured disc samples was performed on a Siemens MagnetomPrisma E11 (Siemens Healthineers, Erlangen, Germany) with the following parameters: TR 3000 ms, TE 80 ms, thickness 1.1 mm, interval 0.22 mm, field of view 160×65 mm, voxel size 0.25×0.1 mm.

[3] = tested on: punctured intervertebral disc (spinal degeneration); test: Safranin O-fast green staining, Sirius red staining and immunofluorescence of disc paraffin sections; assay type: in vivo, Sprague-Dawley rats
Procedure: Fixed disc tissue specimens (sham group, Puncture group, and Bleomycin group) were embedded in paraffin blocks, followed by tissue sectioning (with a thickness of 5 μm). For histological evaluation, paraffin sections were stained with saffron O-solid green and Sirius red according to standard laboratory protocols. For immunofluorescence detection, tissue sections were de-paraffined in graded xylene, rehydrated in graded alcohol solution, and then incubated in antigen retrieval buffer (Roche) at 37° C. for 30 min. After cooling to room temperature, the slides were immersed in PBS (pH 7.4) and washed 3 times for 5 min each. Autofluorescence quencher was added to the sections, and 5 min later, blocking buffer was added to block the sections for 30 min at room temperature. The sections were then incubated with primary antibodies overnight in a wet chamber at 4° C. Primary antibodies were diluted at a ratio of 1:100, and included anti-Col1a1, anti-FSP1, anti-TGFβ, and anti-TGFβR1 (all purchased from Cell Signaling Technology). The next day, sections were washed with PBS, conjugated to secondary antibody (anti-rabbit, 1:500; Cell Signaling Technology) through Alexa-fluor594, and then incubated for 50 min in the dark at room temperature. The sections were washed with PBS and then incubated with DAPI solution (Sigma Aldrich, St. Louis, MO, USA) for 10 minutes in the dark to stain the nucleus. The sections were subjected to a final PBS wash, air-dried, and then sealed with an anti-fluorescence quenching flake. Digital fluorescence images were taken by using a Leica DM4000 B epifluorescence microscope (Leica Microsystems).

[4] = tested on: punctured intervertebral disc (spinal degeneration); test: Atomic force analysis of punctured disc paraffin sections; assay type: in vivo, Sprague-Dawley rats; conditions: Puncture+Bleomycin; FIG. 7 and 8
Procedure: Atomic force analysis was performed by first extracting and dissecting the punctured vertebrae. Paraffin sections were made and then nanoindented (R<10 nm, nominal N/m, tips: Si/Tipless/Top, cantilevered Si/Al/Top; Park Systems) by using a Park NX20 (Park Systems, Korea) equipped with a microsphere colloidal tip. For undulating surfaces with large areas, a scan rate of 13 hz was used. Large scanning rates can reduce drift, but are generally only used to scan small planes. Indentation was performed by using a scanning Asyst air probe, where a z-piezo displacement rate was 10 μm/s, a maximum load was ˜120 nn, a curvature radius was 5 nm, and a force constant was 0.4 N/m.

[5] = 10 and 5 μg/ml of bleomycin, compared with the puncture group and the control group, FIG. 4
[6] = Puncture+Bleomycin vs Puncture group, FIG. 3

Substance: bleomycin
- p-smad2 and p-smad3 in annulus fibrosus cells ([1]; 5, 10 μg/ml bleomycin, co-culture 30 min or 24 h, western blot, FIG. 1A and 1B): activated
- expression of end-protein products Col1a1 and FSP1 ([1]; 5, 10 μg/ml bleomycin, co-culture 30 min or 24 h, western blot, FIG. 1C): increased
- fibrogenic-associated proteins TGFβ, FSP1, and Col1a1 (immunoprotein western-blot) ([1]; legend of FIG. 1C): highly expressed
- signal of the intervertebral disc (MRI) [2]: difficult to be preserved
- stability of the disc (X-ray and MRI) [2]: not significantly affected
- intervertebral space height (X-ray and MRI) ([2]; vs Puncture group): effectively maintained
- staining percentage of annulus fibrous (green) [3, 5]: significantly increased
- staining percentage of type I collagen (yellow) [3, 5]: significantly increased
- staining percentage of type III collagen (green) [3, 5]: significantly increased
- type I and type III collagens secreted (immunofluorescence) ([3]; Puncture+, Bleomycin 10 or 5, FIGS. 5 and 6): a large amount of type I and type III collagens was secreted
- annulus fibrosus repair (staining) [3, 6]: completely repaired and migrated inward
- intervertebral space height (Safranin O-fast green and Sirius red staining) [3, 6]: significantly higher
- type I collagen secreted to fill the intervertebral space (staining) [3, 6]: large amounts of type I collagen were secreted
- fibrosis (atomic force analysis) [4]: faster fibrosis
- intervertebral space height (atomic force analysis) [4]: preservation of the intervertebral space height
- resistance of the disc to deformation (atomic force analysis) [4]: increase in the resistance of the disc to deformation

Reference: patent publication US20240115658A1, “Use of an intervertebral disc fibrosis-inducing substance in preparation of medication” (Shanghai Ninth People's Hospital, Shanghai JiaoTong …, priority 2020, published 2024)
